Test results: patent US7786042B2, “Fluridone as an anti-inflammatory agent” (Universita' Degli Studi Di Genova, priority 2005, dated 2010)

System: murine microglial cell line N9
Test: ABA content in murine microglia N9 by HPLC-MS
Assay type: cell-based
Conditions: N9 cells; fluridone 50 μM together with LPS
Description: Cells from the murine microglial cell line N9 were pre-incubated with or without 50 μM fluridone for 2 hours and then stimulated with 100 ng/ml lipopolysaccharide (LPS) for 24 hours. The ABA content was measured by HPLC-MS (see Materials and Methods) and was compared with that of untreated cells (control). The results are the mean from 2 experiments.
N9 cells were seeded (25×10^6/flask) in IMDM medium containing fetal calf serum, incubated for 3 h at 37° C. with or without 50 μM fluridone and then incubated for 3 days in the absence or in the presence of 200 ng/ml lipopolysaccharide (LPS). Cells were then recovered, washed in phosphate-buffered saline isotonic solution at pH 7.4 (PBS), resuspended in 0.5 ml water and sonicated. […] A small aliquot of the extract was used to determine radioactivity (with a β-counter), allowing the calculation of the percentage of ABA recovery after-extraction. The rest of the extract was analyzed on an Agilent 1100 capillary chromatography system, with a diode array detector, equipped with a Waters Atlantis™ dC18 150×1 mm column, particle size 3 μm, coupled to an Agilent 1100 series LC/MSD Trap mass spectrometer, equipped with an orthogonal geometry electrospray source and ion trap analyser. […]

`Cn1cc(-c2ccccc2)c(=O)c(-c2cccc(C(F)(F)F)c2)c1` [Fluridone, 1-methyl-3-phenyl-5-(α,α,α-trifluoro-m-tolyl)-4-pyridone] was tested, and the “reduction of the LPS-induced increase of intracellular ABA content” value was 60%.
